Tests used:
[1] = system: aberrant crypts induced by azoxymethane (AOM); test: Inhibition of azoxymethane-induced aberrant crypt formation (induction study); format: in vivo, rat (F344); conditions: in drinking water, distal 7-8 cm of colon
Source text: Aberrant crypts were originally described in carcinogen-induced colonic mucosa as crypts of "increased size, thicker epithelial lining and increased pericryptal zones" (Bird et al. (1989) Cancer Surv. 8:189-200). […] The anti-tumor activity of several of these agents has been confirmed in longer term AOM animal studies. The aberrant crypt model is, therefore, an ideal in vivo assay for efficacy of balsalazide and metabolites.
Inhibition of Aberrant Crypt Induction.
Four groups of 5 male F344 rats were used. Animals were 6-8 weeks of age at the start of dosing with a starting weight range within +/-20% of the overall mean. The expected response to AOM treatment from published studies is the formation of 100-140 aberrant crypts per animal (Wargovich et al. (1992) J. Cell. Biochem. 16G:51-54). […]
Body weights were recorded twice weekly, and water consumed by each cage of animals measured twice weekly. Consumption is calculated as average ml/animal/cage.
For aberrant crypt analysis, animals were sacrificed under CO2 euthanasia at the end of either three weeks or five weeks of dosing. […] After a saline rinse, the number of foci of aberrant crypts was scored by counting under a microscope at 40-100× magnification. The length of the colonic tissue was also measured. […]

[2] = cited from earlier work
[3] = system: rectal mucosal reactive oxygen metabolite production; conditions: cited from earlier work
colonic inflammation = conditions: several animal models of colonic inflammation; cited from earlier work

SMILES: O=C(O)CCNC(=O)c1ccc(/N=N/c2ccc(O)c(C(=O)O)c2)cc1 [Balsalazide]
- inhibition in the average number of aberrant crypts ([1]; week 1): 61.8%
- inhibition in the average number of aberrant crypts ([1]; week five): 58.1%
- absorption ([2]; oral balsalazide): virtually unabsorbed through the upper GI tract
- drug reaching the colon intact ([2]; oral): 99%
- reduction of rectal mucosal reactive oxygen metabolite production ([3]; rectal biopsies, ulcerative colitis patients): over 90%
- effectiveness relative to taurine, ascorbate or N-acetyl cysteine ([3]; similar concentrations): more effective
- anti-inflammatory activity in animal models (colonic inflammation): possesses anti-inflammatory activity

From patent US5905073A, “Use of 2-hydroxy-5-phenylazobenzoic acid derivatives as colon cancer chemopreventative and chemotherapeutic agents” (priority 1996, dated 1999)
